Reference: patent US6028077A, “Crambescidin compounds” (priority 1998, dated 2000)
Like-named read-outs stand apart in the source and are kept apart here.

Columns and labels:
[1] = system: Ca^2+ channel; settings: cited from earlier work
[2] = system: L1210 murine leukemia cells; experiment: Cytotoxicity (parallel assay) against L1210 murine leukemia cells; assay type: cell-based; settings: for inhibition at 0.1 µg/mL / inhibition at 0.25 µg/mL / inhibition at 0.5 µg/mL / inhibition at 1 µg/mL: Mus musculus; for inhibition at 0.1 µg/mL: L1210, 0.1 μg/mL; for inhibition at 0.25 µg/mL: L1210, 0.25 μg/mL; for inhibition at 0.5 µg/mL: L1210, 0.5 μg/mL; for inhibition at 1 µg/mL: L1210, 1.0 μg/mL; for cytotoxic activity compared with other compounds / activity relative to crambescidin 816 (1): L1210 cells
Excerpt: However, crambescidins 674 (9) and 687 (10) without a spermidine derivative unit are less than 5 times as active than 1.
Cytotoxicities against L1210 Cells for Compounds 1, 6-12,

[3] = system: Herpes simple-x, Type I virus (HSV-I); settings: cited from earlier work
[4] = system: L1210 cells; settings: cited from earlier work
[5] = virus not named; cited from earlier work
[6] = system: HSV; settings: cited from earlier work
[7] = system: P388 cells; settings: cited from earlier work
[8] = system: Candida albicans; settings: cited from earlier work
[9] = system: Rhodotorula glutinis; experiment: Antimicrobial assay against Rhodotorula glutinis; assay type: cell-based
[10] = system: KB cells; settings: cited from earlier work
[11] = times as active than 1, without a spermidine derivative unit

Structure (SMILES)	inhibition at 0.1 µg/mL [2] [%]	inhibition at 0.25 µg/mL [2] [%]	inhibition at 0.5 µg/mL [2] [%]	inhibition at 1 µg/mL [2] [%]	other results
CCC1C=CCCC2(CC3CCC4(O)C(C(=O)OCCCCCCCCCCCCCCCC(=O)N(CCCN)CC(O)CCN)C5(CCCC(C)O5)NC(=N2)N34)O1 (centres unmarked) [Compound 1, crambescidin 816, reference compound]	0	70	97	100	Ca^2+ channel blocker [1]: potent calcium channel blocker; Ca^2+ channel blocker ([1]; listed as crambescidin 816 (1)): strong Ca^2+ channel blocker; antiviral activity against HSV-I [3]: exhibited antiviral activity
CCC1C=CCCC2(CC3CCC4C(C(=O)OCCCCCCCCCCCCCCCC(=O)N(CCCN)CC(O)CCN)C5(CCCC(C)O5)NC(=N2)N34)O1 (centres unmarked) [Compound 5, 13, 14, 15-Isocrambescidin 800]					growth inhibition / cytotoxicity, L1210 cells [4]: substantially less cytotoxic; antiviral activity [5]: no observed antiviral activity
CCC1C=CCCC2(CC3CCC4C(C(=O)OCCCCCCCCCCCCCCCC(=O)N(CCCN)CCCCN)C5(CCCC(C)O5)NC(=N2)N34)O1 (centres unmarked) [Compound 6, ptilomycalin A]	20	60	99	100	antiviral activity (HSV) [6]: antiviral activity (HSV); cytotoxic activity compared with other compounds [2]: slightly more active than 1; growth inhibition / cytotoxicity, L1210 cells [4]: shown cytotoxicity; cytotoxicity, P388 cells [7]: shown cytotoxicity; antifungal activity against Candida albicans [8]: antifungal activity; antimicrobial activity at 2 μg/well [9]: active; cytotoxicity, KB cells [10]: shown cytotoxicity
CCC1C=CCCC2(CC3CCC4(O)C(C(=O)OCCCCCCCCCCCCCCCC(=O)N(CCCN)CC(Cl)CCN)C5(CCCC(C)O5)NC(=N2)N34)O1 (centres unmarked) [Compound 7, Crambescidin 834]	90	95	95	100	activity relative to crambescidin 816 (1) ([2]; times more active than 1): about 5 times
CCC1C=CCCC2(CC3CCC4C(C(=O)OCCCCCCCCCCCCCCCC(=O)N(CCCN)CC(Cl)CCN)C5(CCCC(C)O5)NC(=N2)N34)O1 (centres unmarked) [Compound 8, Crambescidin 818]	90	95	95	100	activity relative to crambescidin 816 (1) ([2]; times more active than 1): about 5 times
CCC1C=CCCC2(CC3CCC4(O)C(C(=O)OCCCCCCCCCCCCCCCC(=O)O)C5(CCCC(C)O5)NC(=N2)N34)O1 (centres unmarked) [Compound 9, Crambescidin 673]	0	0	0	100	activity relative to crambescidin 816 (1) [2, 11]: less than 5 times
CCC1C=CCCC2(CC3CCC4(O)C(C(=O)OCCCCCCCCCCCCCCCC(=O)OC)C5(CCCC(C)O5)NC(=N2)N34)O1 (centres unmarked) [Compound 10, Crambescidin 687]	0	0	0	100	activity relative to crambescidin 816 (1) [2, 11]: less than 5 times
CCC1C=CCCC2(CC3CCC4C(C(=O)OCCCCCCCCCCCCCCCC(=O)O)C5(CCCC(C)O5)NC(=N2)N34)O1 (centres unmarked) [Compound 11, Crambescidin 657]				100	Inhibition (%) ([2]; 0.1 μg/mL): 93%; cytotoxic activity compared with other compounds ([2]; listed as crambescidin 657 (11)): most cytotoxic compound in the test
CCC1C=CCCC2(CC3CCC4C(C(=O)OCCCCCCCCCCCCCCCC(=O)O)C5(CCCC(C)O5)NC(=N2)N34)O1 (centres unmarked) [Compound 12, 13,14,15-Isocrambescidin 657]					Inhibition (%) ([2]; 0.1 μg/mL): 0%; Inhibition (%) ([2]; 0.25 μg/mL): 0%; Inhibition (%) ([2]; 0.5 μg/mL): 0%; Inhibition (%) ([2]; 1.0 μg/mL): 100%; inhibition at 5 μg/mL ([2]; 5 μg/mL): no inhibition; cytotoxic activity compared with other compounds ([2]; listed as 13, 14, 15-Isocrambescidin 657 (12)): substantially less active
CCC1C=CCCC2(CC3CCC4C(C(=O)OCCCCCCCCCCCCCCCC(=O)OC)C5(CCCC(C)O5)NC(=N2)N34)O1 (centres unmarked) [Methyl 11]	0	0	0	0	
